Laboratory results as given in patent publication US4087432A, “1H-imidazo(4,5-b)pyridine compounds” (Eli Lilly and Company, priority 1975, dated 1978).

Assays:
Foxtail [1] = experiment: Preemergent injury rating, foxtail; format: in vivo, foxtail (millet); set-up: key: injury rating scale on which 4 = death
Description: (§1) Various of the compounds to be employed as active agent in accordance with the present invention were evaluated for preemergent application to various species of plants. In this evaluation, a soil was prepared consisting of one part masonry sand and one part shredded top soil blended together in a cement mixer. One gallon of this soil was placed in a 25 × 35 cm. galvanized flat and was patted down with a bench brush until level. A three-row marker was used to make 21/2 cm. deep furrows in approximately two-fifths of the flat. Crop seeds consisting of four kernels of corn, five cotton seeds and five soybean seeds were placed in these furrows. A four-row template was then placed on the remaining soil and the indicated approximate numbers of each of the following seeds were planted, one species to each section: foxtail (millet), 80-100 seeds; velvetleaf (40-50 seeds); rough pigweed (150-250 seeds); and large crabgrass (100-150 seeds).
(§2) Sufficient soil was added to cover the entire flat. Thus, the weed seeds were covered to a depth of about 6 mm. and the crop seeds were covered to a depth of about 3 cm.
(§3) In assaying the effect of the composition as preemergent herbicides, a flat prepared as above, taken either on the day of planting or on the next day, was placed in a chamber equipped with a turntable and an air exhaust. The herbicidal composition, either a spray-type emulsion or a wettable powder, was applied to the flat with a modified DeVilbiss atomizer hooked to an air source. Twelve and one-half milliliters of the composition under test were applied to each flat either on the day of planting or the succeeding day. Injury ratings and observations as to type of injury were made eleven to twelve days after treatment. The injury rating scale used was as follows:
(§4) 4--death When more than one determination was carried out at a given rate, an average value was calculated for the injury rating. Each compound evaluated was formulated as a spray by one of the following procedures. In one method the particular compound was wetted by grinding in a mortar with one part of polyoxyethylene sorbitan monolaurate. Five hundred parts of water were added slowly to the resultant creamy paste to give an aqueous dispersion with a surfactant concentration of 0.2 percent. This dispersion was entirely satisfactory for spray application. In a second procedure the compound was dissolved in one volume of acetone, and the acetone solution was diluted with nineteen volumes of water containing 0.1 percent of polyoxyethylene sorbitan monolaurate.
(§5) In the following table setting forth the results of the evaluation, column 1 gives the name of the compound under test; column 2, the rate in pounds per acre at which the compound was applied to the test flat; and the remaining columns, the injury to the particular plant seeds or seedlings as measured by the foregoing scale.

Velvet Leaf [2] = experiment: Postemergent injury rating, velvetleaf; format: in vivo
Description: as §1, §2, §3, §4
(§6) Representative compounds of the present invention were evaluated for postemergent application to plants including corn and several weed species. The evaluation was carried out in accordance with the procedures of Examples 49-52 except that the test solutions were applied about 9-12 days after the preparation and seeding of the flats.

Cotton [3] = experiment: Postemergent injury rating, cotton; format: in vivo
Description: as §1, §2, §3, §4, §6

Pigweed [4] = experiment: Postemergent injury rating, pigweed; format: in vivo, rough pigweed; set-up: key: injury rating scale, 4 = death
Description: as §1, §2, §3, §4, §6

Soybean [5] = experiment: Postemergent injury rating, soybean; format: in vivo
Description: as §1, §2, §3, §4, §6

Crabgrass [6] = experiment: Preemergent injury rating, crabgrass; format: in vivo, large crabgrass; set-up: key: injury rating scale on which 4 = death
Description: as §1, §2, §3, §4, §5

Corn [7] = experiment: Postemergent injury rating, corn; format: in vivo; set-up: key: injury rating scale, 4 = death
Description: as §1, §2, §3, §4, §6

Cotton [8] = experiment: Preemergent injury rating, cotton; format: in vivo; set-up: key: injury rating scale on which 4 = death
Description: as §1, §2, §3, §4, §5

Foxtail [9] = experiment: Postemergent injury rating, foxtail; format: in vivo, foxtail (millet); set-up: key: injury rating scale, 4 = death
Description: as §1, §2, §3, §4, §6

Crabgrass [10] = experiment: Postemergent injury rating, crabgrass; format: in vivo, large crabgrass; set-up: key: injury rating scale, 4 = death
Description: as §1, §2, §3, §4, §6

Corn [11] = experiment: Preemergent injury rating, corn; format: in vivo; set-up: key: injury rating scale on which 4 = death
Description: as §1, §2, §3, §4, §5

Soybean [12] = experiment: Preemergent injury rating, soybean; format: in vivo; set-up: key: injury rating scale on which 4 = death
Description: as §1, §2, §3, §4, §5

Velvet Leaf [13] = experiment: Preemergent injury rating, velvetleaf; format: in vivo; set-up: key: injury rating scale on which 4 = death; details: 2 lbs/acre
Description: as §1, §2, §3, §4, §5

Pigweed [14] = experiment: Preemergent injury rating, pigweed; format: in vivo, rough pigweed; set-up: key: injury rating scale on which 4 = death; details: 2 lbs/acre
Description: as §1, §2, §3, §4, §5

On1c(C(F)(F)F)nc2ncc(C(F)(F)F)cc21 [1-hydroxy-2,6-bis(trifluoromethyl)-1H-imidazo(4,5-b)pyridine]
Injury Rating, Foxtail (Foxtail [1]; 8 lbs/acre): 4 | Injury Rating, Velvet Leaf (Velvet Leaf [2]; 1 lbs/acre): 4 | Injury Rating, Velvet Leaf (Velvet Leaf [2]; 2 lbs/acre): 4 | Injury Rating, Velvet Leaf (Velvet Leaf [2]; 4 lbs/acre): 4 | Injury Rating, Velvet Leaf (Velvet Leaf [2]; 8 lbs/acre): 4 | Injury Rating, Cotton (Cotton [3]; 1 lbs/acre): 4 | Injury Rating, Cotton (Cotton [3]; 2 lbs/acre): 4 | Injury Rating, Cotton (Cotton [3]; 4 lbs/acre): 4 | Injury Rating, Cotton (Cotton [3]; 8 lbs/acre): 4 | Injury Rating, Pigweed (Pigweed [4]; 1 lbs/acre): 4 | Injury Rating, Pigweed (Pigweed [4]; 2 lbs/acre): 4 | Injury Rating, Pigweed (Pigweed [4]; 4 lbs/acre): 4 | Injury Rating, Pigweed (Pigweed [4]; 8 lbs/acre): 4 | Injury Rating, Soybean (Soybean [5]; 1 lbs/acre): 4 | Injury Rating, Soybean (Soybean [5]; 2 lbs/acre): 4 | Injury Rating, Soybean (Soybean [5]; 4 lbs/acre): 4 | Injury Rating, Soybean (Soybean [5]; 8 lbs/acre): 4 | Injury Rating, Crabgrass (Crabgrass [6]; 8 lbs/acre): 4 | Injury Rating, Corn (Corn [7]; 1 lbs/acre): 1 | Injury Rating, Corn (Corn [7]; 2 lbs/acre): 4 | Injury Rating, Corn (Corn [7]; 4 lbs/acre): 4 | Injury Rating, Corn (Corn [7]; 8 lbs/acre): 4 | Injury Rating, Cotton (Cotton [8]; 8 lbs/acre): 4 | Injury Rating, Foxtail (Foxtail [9]; 1 lbs/acre): 4 | Injury Rating, Foxtail (Foxtail [9]; 2 lbs/acre): 4 | Injury Rating, Foxtail (Foxtail [9]; 4 lbs/acre): 4 | Injury Rating, Foxtail (Foxtail [9]; 8 lbs/acre): 4 | Injury Rating, Crabgrass (Crabgrass [10]; 1 lbs/acre): 4 | Injury Rating, Crabgrass (Crabgrass [10]; 2 lbs/acre): 4 | Injury Rating, Crabgrass (Crabgrass [10]; 4 lbs/acre): 4 | Injury Rating, Crabgrass (Crabgrass [10]; 8 lbs/acre): 4 | Injury Rating, Corn (Corn [11]; 8 lbs/acre): 3 | Injury Rating, Soybean (Soybean [12]; 8 lbs/acre): 3

CS(=O)(=O)c1cnc2nc(C(F)(F)F)n(O)c2c1 [6-(methylsulfonyl)-1-hydroxy-2-(trifluoromethyl)-1H-imidazo(4,5-b)pyridine]
Injury Rating, Foxtail (Foxtail [1]; 2 lbs/acre): 2 | Injury Rating, Cotton (Cotton [3]; 1 lbs/acre): 3 | Injury Rating, Cotton (Cotton [3]; 2 lbs/acre): 4 | Injury Rating, Pigweed (Pigweed [4]; 1 lbs/acre): 3 | Injury Rating, Pigweed (Pigweed [4]; 2 lbs/acre): 4 | Injury Rating, Soybean (Soybean [5]; 1 lbs/acre): 3 | Injury Rating, Soybean (Soybean [5]; 2 lbs/acre): 4 | Injury Rating, Crabgrass (Crabgrass [6]; 2 lbs/acre): 2 | Injury Rating, Corn (Corn [7]; 1 lbs/acre): 1 | Injury Rating, Corn (Corn [7]; 2 lbs/acre): 2 | Injury Rating, Cotton (Cotton [8]; 2 lbs/acre): 0 | Injury Rating, Foxtail (Foxtail [9]; 1 lbs/acre): 4 | Injury Rating, Foxtail (Foxtail [9]; 2 lbs/acre): 4 | Injury Rating, Velvet Leaf (Velvet Leaf [13]): 2 | Injury Rating, Crabgrass (Crabgrass [10]; 1 lbs/acre): 2 | Injury Rating, Crabgrass (Crabgrass [10]; 2 lbs/acre): 2 | Injury Rating, Corn (Corn [11]; 2 lbs/acre): 0 | Injury Rating, Pigweed (Pigweed [14]): 3 | Injury Rating, Soybean (Soybean [12]; 2 lbs/acre): 2
